According to US10995101B2, “2-oxo-thiazole derivatives as A2A inhibitors and compounds for use in the treatment of cancers” (iTeos Therapeutics SA, priority 2017, dated 2021):

How the values were obtained:
in vitro = settings: human, Caco-2, pH 7.4
Description: 2 μM dosing solutions for reference compounds and test compounds are prepared by spiking the appropriate volume of intermediate solution to TB with and without 1 μM Zosuquidar. The final concentration of DMSO is no more than 1% (v/v).
Caco-2 cells are grown in MEM supplemented with 2 mM L-glutamine, 10% FBS, 100 U/mL penicillin-G and 100 μg/mL streptomycin. The cells are incubated at 37° C., 5% CO2 and relatively saturated humidity. After reaching 80-90% confluency, the cells are gently detached with 0.05% trypsin-EDTA solution.
TB and dosing solutions were pre-warmed to 37° C. before transport assay. The cell monolayer was washed twice with HBSS containing 10 mM HEPES. For A-B (apical to basolateral) directional transport assay, 75 μL dosing solution is added to the apical well. Fill each basolateral well with 250 μL TB. For B-A (basolateral to apical) directional transport assay, 250 μL of dosing solution is added to the basolateral well after filling each apical well with 75 μL TB. […] The plates are incubated for 120 minutes at 37° C. with 5% CO2 and saturated humidity. The time zero samples are generated by mixing 50 μL initial dosing solution of test compound or reference compound with 100 μL TB and 250 μL quench solution (acetonitrile (ACN) or other appropriate solvent with internal standard(s), based on the bioanalytical method development). At 120 minutes, 150 μL of solution is collected from each A-B receiver well followed by addition of 250 μL quench solution to get A-B receiver sample. And for other samples (A-B donor, B-A donor and receiver), 50 μL of solution is collected from each corresponding well followed by addition of 250 μL quench solution and 100 μL TB. All samples are vortex-mixed and centrifuged at 3220 g for 20 minutes. Subsequently, supernatant is diluted with ultra pure water for LC-MS/MS analysis. The concentrations of test compound in all samples are determined by LC-MS/MS and expressed as peak area ratio of analyte to internal standard.
The concentration of samples is expressed using the peak area ratio of Analyte to Internal Standard (Analyte/IS).
The efflux ratio is calculated using the following equation: Efflux ratio=Papp(A−B)/Papp(B−A) • where Papp (A−B) and Papp (B−A) are the Papp values of compound in Apical to Basolateral and Basolateral to Apical directional transport, respectively.

A2A receptor = A2A receptor (Homo sapiens, UniProt P29274); experiment: Inhibition of cAMP production in HEK cells; type: cell-based; settings: HEK-293 cells with A2A receptor
Description: When the A2A receptor is activated, is induces the production of cAMP.
HEK-293 cells with a stable transfection of A2A receptor were bought from PerkinElmer® (# ES-011-C). […] Fresh media without the selection marker was added on the day immediately before the experiment to stop selection pressure.
Stimulation buffer b) mimics the human situation by increasing the amount of albumin present in the assay.
Compounds of the present invention were diluted 100× in either of the buffers depending on the assay performed. […] The total volume of the reaction was 20 μl (10 μl of cells, 5 μl of antagonist and 5 μl of agonist). The reaction was finalized by adding 10 μl of 4× EU-cAMP tracer working solution and 10 μl of 4× ULight-anti-cAMP working solution. The TR-FRET signal was measured after 1 hour using a Spectramax Paradigm (Molecular Devices).

[1] = IC50 (nM) (3 nM NECA as agonist, 0.1% BSA), 3 nM NECA as agonist, 0.1% BSA
[2] = IC50 (nM) (5 nM NECA as agonist, 2% HSA), 5 nM NECA as agonist, 2% HSA
[3] = IC50 (nM) (5 μM Adenosine as agonist, 2.0% HSA), 5 μM Adenosine as agonist, 2.0% HSA

Sequence of A2A receptor (P29274 whole entry): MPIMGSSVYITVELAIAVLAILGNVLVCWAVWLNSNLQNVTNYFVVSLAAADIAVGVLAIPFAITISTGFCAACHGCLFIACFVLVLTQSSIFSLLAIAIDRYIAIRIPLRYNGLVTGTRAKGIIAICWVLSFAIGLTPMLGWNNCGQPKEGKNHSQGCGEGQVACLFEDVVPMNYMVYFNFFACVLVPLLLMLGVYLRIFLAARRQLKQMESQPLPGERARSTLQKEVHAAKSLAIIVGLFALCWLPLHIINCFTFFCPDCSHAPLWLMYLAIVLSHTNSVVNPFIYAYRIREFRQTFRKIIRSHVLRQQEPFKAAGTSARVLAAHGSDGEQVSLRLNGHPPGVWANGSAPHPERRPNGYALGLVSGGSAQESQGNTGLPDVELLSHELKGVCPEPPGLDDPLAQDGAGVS

Structure (SMILES) | efflux ratio at 120 min, 2 μM (in vitro) | IC50 (A2A receptor; [1]) [nM] | IC50 (A2A receptor; [2]) [nM] | IC50 (A2A receptor; [3]) [nM]
CN(CCNC(=O)c1ccc(N2CCN(CCn3c(=O)sc4c3nc(N)n3nc(-c5ccco5)nc43)CC2)c(F)c1)C1COC1 [Compound 69, 4-(4-(2-(5-amino-8-(furan-2-yl)-2-oxothiazolo[5,4-e][1,2,4]triazolo[1,5-c]pyrimidin-3(2H)-yl)ethyl)piperazin-1-yl)-3-fluoro-N-(2-(methyl(oxetan-3-yl)amino)ethyl)benzamide] | 201 | 0.5 | 5 | 211
Nc1nc2c(sc(=O)n2CCN2CCN(c3ccc(OCC4CNCCO4)cc3F)CC2)c2nc(-c3ccco3)nn12 (stereo not drawn) [Compound 100, 5-amino-3-(2-(4-(2-fluoro-4-(morpholin-2-ylmethoxy)phenyl)piperazin-1-yl)ethyl)-8-(furan-2-yl)thiazolo[5,4-e][1,2,4]triazolo[1,5-c]pyrimidin-2(3H)-one] | 66 | 0.1 |  | 10
CS(=O)(=O)CCOc1ccc(N2CCN(CCn3c(=O)sc4c3nc(N)n3nc(-c5ccco5)nc43)CC2)c(F)c1 [Compound 78, 5-amino-3-(2-(4-(2-fluoro-4-(2-(methylsulfonyl)ethoxy)phenyl)piperazin-1-yl)ethyl)-8-(furan-2-yl)thiazolo[5,4-e][1,2,4]triazolo[1,5-c]pyrimidin-2(3H)-one] | 45 | 0.6 |  | 130
NC(=O)COc1ccc(N2CCN(CCn3c(=O)sc4c3nc(N)n3nc(-c5ccco5)nc43)CC2)c(F)c1 [Compound 54, 2-(4-(4-(2-(5-amino-8-(furan-2-yl)-2-oxothiazolo[5,4-e][1,2,4]triazolo[1,5-c]pyrimidin-3(2H)-yl)ethyl)piperazin-1-yl)-3-fluorophenoxy)acetamide] | 24 | 0.8 | 3 | 138
Nc1nc2c(sc(=O)n2CCN2CCN(c3ccncc3F)CC2)c2nc(-c3ccco3)nn12 [Compound 3, 5-amino-3-(2-(4-(3-fluoropyridin-4-yl)piperazin-1-yl)ethyl)-8-(furan-2-yl)thiazolo[5,4-e][1,2,4]triazolo[1,5-c]pyrimidin-2(3H)-one] | 4 |  |  | 
Nc1nc2c(sc(=O)n2CCN2CCN(c3ccc(OCCN4CCOCC4)cc3)CC2)c2nc(-c3ccco3)nn12 [Compound 16, 5-amino-8-(furan-2-yl)-3-(2-(4-(4-(2-morpholinoethoxy)phenyl)piperazin-1-yl)ethyl)thiazolo[5,4-e][1,2,4]triazolo[1,5-c]pyrimidin-2(3H)-one] |  | 3.2 | 14 | 
Nc1nc2c(sc(=O)n2CCN2CCN(c3cc(O[C@H]4CNC[C@H]4F)c(F)cc3F)CC2)c2nc(-c3ccco3)nn12 [Compound 94, 5-amino-3-(2-(4-(2,4-difluoro-5-(((3S,4R)-4-fluoropyrrolidin-3-yl)oxy)phenyl)piperazin-1-yl)ethyl)-8-(furan-2-yl)thiazolo[5,4-e][1,2,4]triazolo[1,5-c]pyrimidin-2(3H)-one] | 173 |  |  | 
CNC(=O)c1ccc(N2CCN(CCn3c(=O)sc4c3nc(N)n3nc(-c5ccco5)nc43)CC2)cc1 [Compound 15, 4-(4-(2-(5-amino-8-(furan-2-yl)-2-oxothiazolo[5,4-e][1,2,4]triazolo[1,5-c]pyrimidin-3(2H)-yl)ethyl)piperazin-1-yl)-N-methylbenzamide] |  | 2.6 |  | 
CN(C)CCOc1ccc(N2CCN(CCn3c(=O)sc4c3nc(N)n3nc(-c5ccco5)nc43)CC2)cc1 [Compound 17, 5-amino-3-(2-(4-(4-(2-(dimethylamino)ethoxy)phenyl)piperazin-1-yl)ethyl)-8-(furan-2-yl)thiazolo[5,4-e][1,2,4]triazolo[1,5-c]pyrimidin-2(3H)-one] |  | 1 |  | 
Nc1nc2c(sc(=O)n2CCN2CCN(c3ccc(S(N)(=O)=O)cc3)CC2)c2nc(-c3ccco3)nn12 [Compound 18, 4-(4-(2-(5-amino-8-(furan-2-yl)-2-oxothiazolo[5,4-e][1,2,4]triazolo[1,5-c]pyrimidin-3(2H)-yl)ethyl)piperazin-1-yl)benzenesulfonamide] |  | 1.7 | 85 | 2170
CN(CCOc1ccc(N2CCN(CCn3c(=O)sc4c3nc(N)n3nc(-c5ccco5)nc43)CC2)c(F)c1)CC(N)=O [Compound 46, 2-((2-(4-(4-(2-(5-amino-8-(furan-2-yl)-2-oxothiazolo[5,4-e][1,2,4]triazolo[1,5-c]pyrimidin-3(2H)-yl)ethyl)piperazin-1-yl)-3-fluorophenoxy)ethyl)(methyl)amino)acetamide] | 30 |  |  | 
Nc1nc2c(sc(=O)n2CCN2CCN(c3ccc(OCCCC(=O)O)cc3F)CC2)c2nc(-c3ccco3)nn12 [Compound 41, 4-(4-(4-(2-(5-amino-8-(furan-2-yl)-2-oxothiazolo[5,4-e][1,2,4]triazolo[1,5-c]pyrimidin-3(2H)-yl)ethyl)piperazin-1-yl)-3-fluorophenoxy)butanoic acid] |  | 0.8 | 14 | 423
NC(=O)c1ccc(N2CCN(CCn3c(=O)sc4c3nc(N)n3nc(-c5ccco5)nc43)CC2)cc1 [Compound 14, 4-(4-(2-(5-amino-8-(furan-2-yl)-2-oxothiazolo[5,4-e][1,2,4]triazolo[1,5-c]pyrimidin-3(2H)-yl)ethyl)piperazin-1-yl)benzamide] |  | 0.7 | 11 | 567
NC(=O)COc1ccc(N2CCN(CCn3c(=O)sc4c3nc(N)n3nc(-c5ccco5)nc43)CC2)cc1 [Compound 11, 2-(4-(4-(2-(5-amino-8-(furan-2-yl)-2-oxothiazolo[5,4-e][1,2,4]triazolo[1,5-c]pyrimidin-3(2H)-yl)ethyl)piperazin-1-yl)phenoxy)acetamide] |  | 2 |  | 
Nc1nc2c(sc(=O)n2CCN2CCN(c3ccncc3)CC2)c2nc(-c3ccco3)nn12 [Compound 75, 5-amino-8-(furan-2-yl)-3-(2-(4-(pyridin-4-yl)piperazin-1-yl)ethyl)thiazolo[5,4-e][1,2,4]triazolo[1,5-c]pyrimidin-2(3H)-one] |  | 24 | 100 | 
CNCCN(C)C(=O)COc1ccc(N2CCN(CCn3c(=O)sc4c3nc(N)n3nc(-c5ccco5)nc43)CC2)c(F)c1 [Compound 58, 2-(4-(4-(2-(5-amino-8-(furan-2-yl)-2-oxothiazolo[5,4-e][1,2,4]triazolo[1,5-c]pyrimidin-3(2H)-yl)ethyl)piperazin-1-yl)-3-fluorophenoxy)-N-methyl-N-(2-(methylamino)ethyl)acetamide] |  | 0.3 | 1 | 41
CC(C)(Oc1cc(N2CCN(CCn3c(=O)sc4c3nc(N)n3nc(-c5ccco5)nc43)CC2)c(F)cc1F)C(=O)O [Compound 59, 2-(5-(4-(2-(5-amino-8-(furan-2-yl)-2-oxothiazolo[5,4-e][1,2,4]triazolo[1,5-c]pyrimidin-3(2H)-yl)ethyl)piperazin-1-yl)-2,4-difluorophenoxy)-2-methylpropanoic acid] |  | 0.9 | 21 | 1070
Nc1nc2c(sc(=O)n2CCN2CCN(c3c(F)cc(OCC(=O)O)cc3F)CC2)c2nc(-c3ccco3)nn12 [Compound 36, 2-(4-(4-(2-(5-amino-8-(furan-2-yl)-2-oxothiazolo[5,4-e][1,2,4]triazolo[1,5-c]pyrimidin-3(2H)-yl)ethyl)piperazin-1-yl)-3,5-difluorophenoxy)acetic acid] |  | 0.7 | 8 | 260
